The values below come from patent US20090018134A1, “Compounds - 945” (AstraZeneca AB, priority 2007, published 2009).

The target of the first assay is T1, mTOR (Homo sapiens, UniProt P42345).
T1 construct: FLAG; made in house
T1 sequence (P42345 1362-2549): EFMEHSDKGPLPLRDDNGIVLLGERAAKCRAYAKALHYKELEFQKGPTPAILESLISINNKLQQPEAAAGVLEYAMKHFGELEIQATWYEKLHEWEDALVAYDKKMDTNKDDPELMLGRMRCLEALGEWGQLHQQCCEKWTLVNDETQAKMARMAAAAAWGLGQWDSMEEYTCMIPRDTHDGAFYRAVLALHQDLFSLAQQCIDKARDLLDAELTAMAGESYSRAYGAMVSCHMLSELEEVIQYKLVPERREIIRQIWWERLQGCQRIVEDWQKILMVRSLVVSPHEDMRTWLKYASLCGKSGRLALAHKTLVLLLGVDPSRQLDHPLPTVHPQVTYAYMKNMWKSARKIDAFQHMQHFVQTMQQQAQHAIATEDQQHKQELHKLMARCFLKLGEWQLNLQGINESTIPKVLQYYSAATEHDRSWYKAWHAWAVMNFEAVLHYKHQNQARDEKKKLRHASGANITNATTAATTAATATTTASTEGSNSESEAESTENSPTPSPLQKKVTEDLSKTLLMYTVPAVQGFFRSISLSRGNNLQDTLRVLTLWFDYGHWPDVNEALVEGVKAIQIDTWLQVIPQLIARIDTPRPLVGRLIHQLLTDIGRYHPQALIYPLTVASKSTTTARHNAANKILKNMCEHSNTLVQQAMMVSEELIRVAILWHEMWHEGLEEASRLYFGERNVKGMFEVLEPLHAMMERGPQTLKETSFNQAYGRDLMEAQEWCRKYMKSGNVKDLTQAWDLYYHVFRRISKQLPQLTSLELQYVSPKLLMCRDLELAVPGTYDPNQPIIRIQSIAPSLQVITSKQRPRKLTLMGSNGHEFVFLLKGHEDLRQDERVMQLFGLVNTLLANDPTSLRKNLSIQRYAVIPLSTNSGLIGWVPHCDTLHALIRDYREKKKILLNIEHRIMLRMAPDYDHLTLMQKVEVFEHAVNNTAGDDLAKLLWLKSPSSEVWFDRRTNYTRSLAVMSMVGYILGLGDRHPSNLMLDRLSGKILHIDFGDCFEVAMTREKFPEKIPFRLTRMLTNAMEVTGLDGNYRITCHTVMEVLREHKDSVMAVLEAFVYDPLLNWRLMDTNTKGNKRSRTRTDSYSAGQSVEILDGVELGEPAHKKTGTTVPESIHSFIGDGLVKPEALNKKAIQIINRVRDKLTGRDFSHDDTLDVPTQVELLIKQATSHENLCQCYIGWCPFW
As to the kind of experiment: In Vitro mTOR Kinase Assay (Echo), Test (a)(ii). The format is biochemical. The note with it: read-out: mTOR Kinase Assay (Echo). An excerpt: (a)(ii) In Vitro mTOR Kinase Assay (Echo)
The assay used AlphaScreen technology (Gray et al., Analytical Biochemistry, 2003, 313: 234-245) to determine the ability of test compounds to inhibit phosphorylation by recombinant mTOR.
A C-terminal truncation of mTOR encompassing amino acid residues 1362 to 2549 of mTOR (EMBL Accession No. L34075) was stably expressed as a FLAG-tagged fusion in HEK293 cells as described by Vilella-Bach et al., […], 1999, 274, 4266-4272. The HEK293 FLAG-tagged mTOR (1362-2549) stable cell line was routinely maintained at 37° C. with 5% CO2 up to a confluency of 70-90% in Dulbecco's modified Eagle's growth medium (DMEM; Invitrogen Limited, Paisley, UK Catalogue No. 41966-029) containing 10% heat-inactivated foetal calf serum (FCS; Sigma, Poole, Dorset, UK, Catalogue No. F0392), 1% L-glutamine (Gibco, Catalogue No. 25030-024) and 2 mg/ml Geneticin (G418 sulfate; Invitrogen Limited, UK Catalogue No. 1013 1-027). Following expression in the mammalian HEK293 cell line, expressed protein was purified using the FLAG epitope tag using standard purification techniques.
Aliquots (120 nl […]) of each compound dilution were acoustically dispensed placed using a Labcyte Echo 550 into a well of a Greiner 384-well low volume (LV) white polystyrene plate (Greiner Bio-one).
These assay solutions were incubated for 2 hours at room temperature.
Each reaction was stopped by the addition of […] of a mixture of EDTA (50 mM), bovine serum albumin (BSA; 0.5 mg/mL) and Tris-HCl pH 7.4 buffer (50 mM) containing p70 S6 Kinase (T389) 1A5 Monoclonal Antibody (Cell Signalling Technology, Catalogue No. 9206B) and AlphaScreen Streptavidin donor and Protein A acceptor beads (200 ng; Perkin Elmer, Catalogue No. 6760002B and 6760137R respectively) were added and the assay plates were left overnight at room temperature in the dark. The resultant signals arising from laser light excitation at 680 nm were read using a Packard Envision instrument.
The phosphorylated biotinylated peptide that is associated with AlphaScreen Streptavidin donor beads forms a complex with the p70 S6 Kinase (T389) 1A5 Monoclonal Antibody that is associated with Alphascreen Protein A acceptor beads. Upon laser light excitation at 680 nm, the donor bead: acceptor bead complex produces a signal that can be measured. Accordingly, the presence of mTOR kinase activity results in an assay signal. In the presence of an mTOR kinase inhibitor, signal strength is reduced.
mTOR enzyme inhibition for a given test compound was expressed as an IC50 value.
With `CCS(=O)(=O)C1(c2cc(N3CCOC[C@@H]3C)nc(-c3ccc(NC(=O)NC(C)C)cc3)n2)CC1` [Example 11c, 1-[4-[4-(1-ethylsulfonylcyclopropyl)-6-[(3S)-3-methylmorpholin-4-yl]pyrimidin-2-yl]phenyl]-3-propan-2-yl-urea], the IC50 was determined as 24.7 nM.
The same measure, in the same setting: with `CCNC(=O)Nc1ccc(-c2nc(N3CCOC[C@@H]3C)cc(C3(S(=O)(=O)c4ccccc4C(F)(F)F)CC3)n2)cc1` [Example 10e, 1-ethyl-3-[4-[4-[(3S)-3-methylmorpholin-4-yl]-6-[1-[2-(trifluoromethyl)phenyl]sulfonylcyclopropyl]pyrimidin-2-yl]phenyl]urea] the figure was 6.91 nM; with `C[C@H]1COCCN1c1cc(C2(S(=O)(=O)c3ccccc3C(F)(F)F)CC2)nc(-c2ccc(NC(=O)NCCCO)cc2)n1` [Example 10l, 3-(3-hydroxypropyl)-1-[4-[4-[(3S)-3-methylmorpholin-4-yl]-6-[1-[2-(trifluoromethyl)phenyl]sulfonylcyclopropyl]pyrimidin-2-yl]phenyl]urea], 18.3 nM.

Staying with this assay, now noted: table of enzyme assay Test (a)(ii); read-out: Test (a)(ii) IC50.
Consider `CNC(=O)Nc1ccc(-c2nc(N3CCOC[C@@H]3C)cc(C3(S(=O)(=O)c4nnc(C)s4)CC3)n2)cc1` [Example 38a], for which the IC50 was found to be 0.918 nM.
In the case of `C[C@H]1COCCN1c1cc(C2(S(=O)(=O)CCCO)CC2)nc(-c2ccc(NC(=S)NCCC#N)cc2)n1` [Example 37e, 3-(2-cyanoethyl)-1-[4-[4-[1-(3-hydroxypropylsulfonyl)cyclopro-pyl]-6-[(3S)-3-methylmorpholin-4-yl]pyrimidin-2-yl]phenyl]thiourea], the IC50 turned out to be 4.9 nM.
For the compound `C[C@@H](CO)NC(=O)Nc1ccc(-c2nc(N3CCOC[C@@H]3C)cc(C3(S(=O)(=O)c4ccc(F)cc4)CCC3)n2)cc1` [Example 65d, 1-[4-[4-[1-(4-fluorophenyl)sulfonylcyclobutyl]-6-[(3S)-3-methylmorpholin-4-yl]pyrimidin-2-yl]phenyl]-3-[(2S)-1-hydroxypropan-2-yl]urea], the IC50 came to 4.48 nM.
On to `C[C@H]1COCCN1c1cc(C2(S(=O)(=O)CCCO)CC2)nc(-c2ccc(NC(=O)NC3(C)CC3)cc2)n1` [Example 36cl, 1-[4-[4-[1-(3-hydroxypropylsulfonyl)cyclopropyl]-6-[(3S)-3-methylmorpholin-4-yl]pyrimidin-2-yl]phenyl]-3-(1-methylcyclopropyl)urea], for which the IC50 is 68.1 nM.
Still for that read-out and setting: with `CNC(=O)Nc1ccc(-c2nc(N3CCOCC3)cc(C3(C(=O)N4CCN(C)CC4)CC3)n2)cc1` [Example 32d, 3-methyl-1-[4-[4-[1-(4-methylpiperazine-1-carbonyl)cyclopropyl]-6-morpholin-4-ylpyrimidin-2-yl]phenyl]urea] the figure was 13.1 nM.
On to `CNC(=O)Nc1ccc(-c2nc(N3CCOC[C@@H]3C)cc(C3(S(=O)(=O)C4CC4)CC3)n2)cn1` [Example 14a, 1-[5-[4-(1-cyclopropylsulfonylcyclopropyl)-6-[(3S)-3-methylmorpholin-4-yl]pyrimidin-2-yl]pyridin-2-yl]-3-methylurea], for which the IC50 turned out to be 13.6 nM.
`C[C@H]1COCCN1c1cc(C2(S(=O)(=O)c3ccccc3)CC2)nc(-c2ccc(NC(=S)NCCO)cc2)n1` [Example 37aa, 1-[4-[4-[1-(benzenesulfonyl)cyclopropyl]-6-[(3S)-3-methylmorpholin-4-yl]pyrimidin-2-yl]phenyl]-3-(2-hydroxyethyl)thiourea]: the IC50 worked out at 5.67 nM.
Same read-out and setting: then `CC(C)CNC(=O)Nc1ccc(-c2nc(N3CCOC[C@@H]3C)cc(C3(S(=O)(=O)c4cc(F)cc(F)c4)CC3)n2)cc1` [Example 19c, 1-[4-[4-[1-(3,5-difluorophenyl)sulfonylcyclopro-pyl]-6-[(3S)-3-methylmorpholin-4-yl]pyrimidin-2-yl]phenyl]-3-(2-methylpropyl)urea], with 21.4 nM.
Same read-out and setting: with `Cc1nn(C)cc1S(=O)(=O)C1(c2cc(N3CCOC[C@@H]3C)nc(-c3ccc(NC(=O)Nc4cnn(C)c4)cc3)n2)CC1` [Example 55f, 1-[4-[4-[1-(1,3-dimethylpyrazol-4-yl)sulfonylcyclopropyl]-6-[(3S)-3-methylmorpholin-4-yl]pyrimidin-2-yl]phenyl]-3-(1-methylpyrazol-4-yl)urea] the figure was 15.6 nM.
As for `C[C@H]1COCCN1c1cc(C2(S(=O)(=O)C3CC3)CCNCC2)nc(-c2ccc(NC(=O)NC3CC3)cc2)n1` [Example 21, 3-Cyclopropyl-1-[4-[4-(4-cyclopropylsulfonylpiperidin-4-yl)-6-[(3S)-3-methylmorpholin-4-yl]pyrimidin-2-yl]phenyl]urea], the IC50 came to 25.3 nM.
For `Cc1csc(S(=O)(=O)C2(c3cc(N4CCOC[C@@H]4C)nc(-c4ccc(NC(=O)NCC(C)C)cc4)n3)CC2)n1` [Example 25c, 1-[4-[4-[(3S)-3-methylmorpholin-4-yl]-6-[1-[(4-methyl-1,3-thiazol-2-yl)sulfonyl]cyclopropyl]pyrimidin-2-yl]phenyl]-3-(2-methylpropyl)urea], the IC50 came to 3.85 nM.
As for `C[C@H]1COCCN1c1cc(C2(S(=O)(=O)c3cc(F)cc(F)c3)CC2)nc(-c2ccc(NC(=O)Nc3cnn(C)c3)cc2)n1` [Example 19m, 1-[4-[4-[1-(3,5-difluorophenyl)sulfonylcyclopro-pyl]-6-[(3S)-3-methylmorpholin-4-yl]pyrimidin-2-yl]phenyl]-3-(1-methylpyrazol-4-yl)urea], the IC50 is 0.944 nM.
`Cc1ccc(S(=O)(=O)C2(c3cc(N4CCOC[C@@H]4C)nc(-c4ccc(NC(=O)NCC(F)F)cc4)n3)CC2)cc1` [Example 95p, 3-(2,2-difluoroethyl)-1-[4-[4-[(3S)-3-methylmorpholin-4-yl]-6-[1-(4-methylphenyl)sulfonylcyclopropyl]pyrimidin-2-yl]phenyl]urea]: the IC50 turned out to be 5.43 nM.
On the same count and under the same terms, with `Cc1csc(S(=O)(=O)C2(c3cc(N4CCOCC4)nc(-c4ccc(NC(=O)NC5CC5)cc4)n3)CC2)n1` [Example 42, 3-Cyclopropyl-1-[4-[4-[1-[(4-methyl-1,3-thiazol-2-yl)sulfonyl]cyclopropyl]-6-morpholin-4-ylpyrimidin-2-yl]phenyl]urea] the figure was 0.705 nM; with `Cc1csc(S(=O)(=O)C2(c3cc(N4CCOC[C@@H]4C)nc(-c4ccc(NC(=S)NC5CC5)cc4)n3)CC2)n1` [Example 37q, 3-cyclopropyl-1-[4-[4-[(3S)-3-methylmorpholin-4-yl]-6-[1-[(4-methyl-1,3-thiazol-2-yl)sulfonyl]cyclopropyl]pyri-midin-2-yl]phenyl]thiourea], 2.94 nM; with `C[C@H]1COCCN1c1cc(C2(S(=O)(=O)C3CC3)CC2)nc(-c2ccc(NC(=S)NC3CC3)cc2)n1` [Example 37b, 3-cyclopropyl-1-[4-[4-(1-cyclopropylsulfonylcyclopropyl)-6-[(3S)-3-methylmorpholin-4-yl]pyrimidin-2-yl]phenyl]thiourea], 12.4 nM.
On the same count and under the same terms, then `CNC(=O)Nc1ccc(-c2nc(N3CCOC[C@@H]3C)cc(C3(S(=O)(=O)c4ccc(C(N)=O)cc4Cl)CC3)n2)cc1` [Example 85, 3-Chloro-4-[1-[2-[4-(methylcarbamoylamino)phenyl]-6-[(3S)-3-methylmorpholin-4-yl]pyrimidin-4-yl]cyclopropyl]sulfonylbenzamide], with 4.77 nM.
Same read-out and setting: then `C[C@H]1COCCN1c1cc(C2(S(=O)(=O)c3ccncc3)CCC2)nc(-c2ccc(NC(=S)NCc3ncc[nH]3)cc2)n1` [Example 63, 3-(1H-Imidazol-2-ylmethyl)-1-[4-[4-[(3S)-3-methylmorpholin-4-yl]-6-(1-pyridin-4-ylsulfonylcyclobutyl)pyrimidin-2-yl]phenyl]thiourea], with 72.5 nM.
